Test results as given in patent EP1501797B1, “3-(SUBSTITUTED AMINO)-1H-INDOLE-2-CARBOXYLIC ACID ESTER AND 3-(SUBSTITUTED AMINO)-BENZO[B]THIOPHENE-2-CARBOXYLIC ACID ESTER DERIVATIVES AS INTERLEUKIN-4 GENE EXPRESSION INHIBITORS” (Aventis Pharmaceuticals Inc., priority 2002, dated 2003).
Structures can show the parent of a compound that is named as a salt. Starred links: 1 amine or outer side, 2 acyl side, 3 side chain; linkers in the order of their positions; H or OH if unused. Positions of bridges follow the written chain, without caps; N, C: chain ends. Non-standard residues stand in square brackets, D forms with d. Residues, ends and D or L forms follow the SMILES beside them. Chains are numbered I, II in the order given. Actinocin(9to1) = Cc1c2oc3c(C)ccc(C(=O)[*:1])c3nc-2c(C(=O)[*:2])c(N)c1=O; NMeV = CN[C@H](C(=O)O)C(C)C; Sar = CNCC(=O)O

Assays:
[1] = tested on: Swiss 3T3 fibroblasts; assay: In vitro cytotoxicity assay on contact inhibited 3T3 fibroblasts (MTS); settings: for % control (viability of quiescent 3T3 cells): 2 day incubation
Protocol: A third assay utilized in the present invention involves an in vitro cytotoxicity assay. This assay is used to further characterize the compounds in order to assess toxic activities of compounds on contact inhibited, non-dividing 3T3 fibroblasts. Other toxicity assays may be used.
Contact inhibited Swiss 3T3 fibroblasts are purchased from ATCC. The cells are maintained in 1640 RPMI supplemented with 10% fetal bovine serum (Gibco).
On day of assay, cells are detached from flasks by trypsinization, washed in medium and counted. 100 microliters of 2.5 x 10^4 cells per well are plated into Falcon brand 96 well tissue culture plates and cells incubated at 37°C in presence of 5% CO2 for 2 days or until confluent.
[…] All compound dilutions are assayed in triplicate. […] Cells are returned to the incubator for 2 days.
After 2 day incubation, the 3T3 cells are assayed for viability using an MTS Assay Kit (Promega). Media is added to blank wells for background calculations. After 2 hours incubation in kit reagent, the optical density at 490 nm for each compound and control is determined by plate reader.
Results are expressed as percent cytotoxicity, i.e., (mean OD of compound wells - background OD)/ (mean OD of controls - background).
Note that starting concentration of CsA was 1 µM. […]

[2] = tested on: IL-4; assay: In vivo ovalbumin (OVA) mouse model, BALF IL-4; set-up: species or system mice
Protocol: This model is designed to determine the ability of a test article to modulate an antigen-induced pulmonary inflammatory cell accumulation in sensitized Balb/c mice from Charles River Laboratories. The mice are given a two week time period from arrival date prior to sensitizations.
On days 0, 7, 14, each animal is injected intraperitoneal (i.p.) with a 0.2 ml Ovalbumin Hydragel solution. Each animal receives 10 µg of Ovalbumin in 0.2 mL of Hydragel, aluminum hydroxide adsorptive gel containing 2% aluminum oxide. […] On day 22, BALF samples are collected from one group of animals and used for cytokine analysis. On day 24, BALF is obtained from a second group of animals and used for differential cell counts.
Test System: Female Babl/cJ mice (Jackson Laboratories), approximately 6-9 weeks old, each weighing approximately 20 to 25 grams, are divided into ten animals per group.
Sensitization Regimen: Mice are sensitized by an intraperitoneal injection of 10 µg ovalbumin (OVA) mixed in 4 mg aluminum hydroxide Al(OH)3 gel suspension in 0.2 ml sterile saline on Days 0, 7 and 14. This suspension is prepared one hour before intraperitoneal injection into each mouse. The animals are ready for OVA challenge on Day 21.
Antigen Challenge: Animals are exposed to aerosolized OVA on day 21 (5% w/v in sterile saline) for 20 minutes. The aerosol is generated by a PARI-Master nebulizer, the outlet of which is connected to a small Plexiglas® chamber containing the animals. Bronchoalveolar lavage is performed on Day 22.
Method of Study Performance: On day 24, 72 hours following aerosol OVA exposure, a separate group of animals are anesthetized with urethane (0.15 - 0.2 gm/kg) and the trachea is exposed and cannulated. Lungs are lavaged with 2 x 0.5 ml Hank's balanced salt solution without Ca^2+ and Mg^2+ (HBSS; Gibco, Grand Island, NY) containing 0.1% EDTA. Lavage fluid is recovered after 30 sec by gentle aspiration and pooled for each animal. Samples are centrifuged at 2000 rpm for 15 minutes at 5°C. After centrifugation, individual supernatants are stored frozen at -80°C. The resulting pellet is resuspended in 0.5 ml of HBSS containing 0.1% EDTA. Total cells and eosinophils are determined using a Technicon Hl and cytoslides, respectively.
Administration of the Test/Control Article: The test article and vehicle dosing preparations are administered once to each anesthetized mouse intranasally using a 200 µl pipette at 30-60 minutes prior to OVA challenge. Each animal receives 50 µl (25 µl/nostril) at each time point. Method of Euthanasia: Urethane overdose at in-life completion.
Compounds administered 30 minutes before aerosol ovalbumin challenge in ova sensitized mice. BALF harvested 24 hours after aerosol challenge. N = 6/group.
Mice (12 animals per group) are sensitized with 0.2 ml of an AlOH3 hydrogel suspension (2% AlOH3) containing 50 µg/ml ovalbumin on days 0, 7 and 14. […] The glucocorticosteroid budesonide (10 mg/kg) is included as a control. All compounds are given in 0.5% methylcellulose/0.2% Tween 80, intranasally (50µl). After the OVA challenge for 24 hours, the mice underwent bronchoalveolar lavage and IL-4 and IL-13 levels in the BALF are determined by ELISA. Another group of mice underwent bronchoalveolar lavage (72 hours after treatment) to determine the number of the eosinophils (*p<0.05, **p<0.01).
Compounds are given (30 mg/kg), intranasally, once, 30 min before OVA challenge unless noted otherwise. BAL fluids are collected 24 hours after OVA challenge and the cytokine levels are measured by standard ELISAs.

[3] = tested on: IL-4; assay: Human primary Th2 cells, anti-CD3/anti-CD28 activated, IL-4 ELISA; type: cell-based; settings: human primary Th2 cells, anti-CD3 and anti-CD28 (Table 5)
Protocol: (§1) Briefly, CD4^+CD45RA^+ T cells, isolated from donor peripheral blood mononuclear cells of healthy donors, are educated in the presence of anti-CD3/CD28 antibodies and various growth factors to obtain either a Thl-like or Th2-like phenotypes as determined by the known cytokine profiles of these two cell types.
(§2) Peripheral blood mononuclear cells (PBMC) are prepared from human blood by Ficoll-Hypacque (Pharmacia). The cells are washed two times in Hanks balanced salt solution (HBSS) and counted.
(§3) Naive T cells (CD4^+/CD45RA ) are prepared by negative selection method using following antibodies and Dynabeads: anti-CD8, anti-HLA-DR, (where HLA means human leucocyte antigen) anti-CD14, anti-CD16, anti-CD19, anti-CD45RO antibodies (all from R&D Systems, 1-2 µg/ml) are added to the cells, and the cells are kept on ice for 30 min. The cells are washed two times in HBSS, and goat anti- mouse Ig-beads, (bead:target ratio, 5:1) are added. The cells and beads are slowly rotated at 4°C for 20 min. (following the protocol supplied from Dynal). The supernatant is removed and fresh goat anti-mouse Ig-beads are added to the supernatant, which is slowly rotated at 4°C for 20 min. The cells are counted and phenotypically characterized by flow cytometric analysis.
(§4) CD4^+/CD45RA^+ cells at a density of 10^6/ml in RPMI, is prepared and added to RPMI medium containing 10% Hyclone serum/ glutamine and 1-2 µg/ml anti-CD28 Ab. The cells are split in two aliquots. For Th1 cells: anti-IL-4 Ab (1-2 µg/ml), IFN-γ (1 µg/ml, or 5000 units/ml) are added to the wells. For Th2 cells: IL-4 (100-200 ng/ml), anti-IFN-γ neutralizing Ab (1-2 µg/ml), anti-IL-12 neutralizing Ab (1-2 µg/ml) are added into the wells. […] The cells are transferred to fresh wells and grown in 200 units/ml IL-2 for 2 weeks by feeding them every other day with IL-2 containing medium and splitting the cultures 1:2 or 1:3 as needed. The degree of polarization is determined by intracellular staining of cells with anti-IFN-γ and anti-IL-4 antibodies from Pharmingen, and using flow cytometry from Becton Dickinson (BD), according to manufacturers description. The cells are stimulated with PHA and alloantigens at day 14 and 28 as described below. Eight days after the second allostimulation the cells can be used for compound screening or frozen for future use. For compound testing, large quantities of Th1 and Th2 cells derived from a given donor (NYTh1 and NYTh2) were expanded and frozen as aliquots in liquid nitrogen. The cells are thawed and cultured as and when needed. The thawed cells are stimulated with alloantigen/PHA combination. The cells are used for compound screening after 8-10 days in culture.
(§5) Re-stimulation by allogeneic cells: Human PBMCs, to be used as alloantigens, are isolated from freshly drawn blood by Ficoll separation. […] Cells are counted and diluted to a final concentration of 2 x 10^6/ml in medium containing 10 µg/ml PHA and 200 units/ml IL-2.
(§6) Ninetysix well Falcon tissue culture plates (Fisher Scientific) are coated with 100 microliters per well of 10 µg/ml anti-CD3 (PharMingen) antibody in phosphate buffered saline (PBS) and stored at 4°C one day before the experiment.
(§7) On the day of assay, anti-CD3 antibody coated plates are washed with PBS once to remove all soluble anti-CD3 antibody. […] All compounds and controls are assayed in triplicates.

[4] = tested on: Human Th2 cells; assay: Human primary Th2 cells, proliferation (viability, MTS assay); type: cell-based; settings: human primary Th2 cells, anti-CD3 and anti-CD28 (Table 5); read-out: Prolif. IC50
Protocol: as §1, §2, §3, §4, §5, §6, §7

[5] = tested on: eosinophils; assay: In vivo ovalbumin (OVA) mouse model, BALF eosinophils; set-up: species or system mice; settings: i.n.
Protocol: On days 0, 7, 14, each animal is injected intraperitoneal (i.p.) with a 0.2 ml Ovalbumin Hydragel solution. Each animal receives 10 µg of Ovalbumin in 0.2 mL of Hydragel, aluminum hydroxide adsorptive gel containing 2% aluminum oxide. […] On day 24, BALF is obtained from a second group of animals and used for differential cell counts. […]
Sensitization Regimen: Mice are sensitized by an intraperitoneal injection of 10 µg ovalbumin (OVA) mixed in 4 mg aluminum hydroxide Al(OH)3 gel suspension in 0.2 ml sterile saline on Days 0, 7 and 14. […] The animals are ready for OVA challenge on Day 21. […]
Method of Study Performance: On day 24, 72 hours following aerosol OVA exposure, a separate group of animals are anesthetized with urethane (0.15 - 0.2 gm/kg) and the trachea is exposed and cannulated. […] Total cells and eosinophils are determined using a Technicon Hl and cytoslides, respectively. […]
Compounds are given (30 mg/kg), intranasally, once, 30 min before OVA challenge unless noted otherwise. […] From a parallel set of animals, BAL are collected at 48 hours and the number of eosinophils are determined.

[6] = tested on: IFN-γ; assay: Human primary Th2 cells, anti-CD3/anti-CD28 activated, IFN-γ ELISA; type: cell-based; settings: human primary Th2 cells, anti-CD3 and anti-CD28 (Table 5)
Protocol: as §1, §2, §3, §4, §5, §6, §7

[7] = tested on: IL-5; assay: Human primary Th2 cells, anti-CD3/anti-CD28 activated, IL-5 ELISA; type: cell-based; settings: human primary Th2 cells, anti-CD3 and anti-CD28 (Table 5)
Protocol: as §1, §2, §3, §4, §5, §6, §7

[8] = tested on: IL-13; assay: Human primary Th2 cells, anti-CD3/anti-CD28 activated, IL-13 ELISA; type: cell-based; settings: human primary Th2 cells, anti-CD3 and anti-CD28 (Table 5)
Protocol: as §1, §2, §3, §4, §5, §6, §7

Cc1c2oc3c(C)ccc(C(=O)N[C@@H]4C(=O)N[C@H](C(C)C)C(=O)N5CCC[C@H]5C(=O)N(C)CC(=O)N(C)[C@@H](C(C)C)C(=O)O[C@@H]4C)c3nc-2c(C(=O)N[C@@H]2C(=O)N[C@H](C(C)C)C(=O)N3CCC[C@H]3C(=O)N(C)CC(=O)N(C)[C@@H](C(C)C)C(=O)O[C@@H]2C)c(N)c1=O [Actinomycin D] (I: T[dV]P[Sar][NMeV] / II: T[dV]P[Sar][NMeV]; ester I:1-I:C, II:1-II:C; linker I:N-II:N via Actinocin(9to1))
% control (viability of quiescent 3T3 cells) ([1]; 0.001 µM): 79.0 % control
% control (viability of quiescent 3T3 cells) ([1]; 0.003 µM): 74.9 % control
% control (viability of quiescent 3T3 cells) ([1]; 0.01 µM): 67.2 % control
% control (viability of quiescent 3T3 cells) ([1]; 0.03 µM): 33.9 % control
% control (viability of quiescent 3T3 cells) ([1]; 0.1 µM): 28.2 % control
% control (viability of quiescent 3T3 cells) ([1]; 3 µM): 29.7 % control
% control (viability of quiescent 3T3 cells) ([1]; 10 µM): 16.8 % control
toxic effects on the viability of quiescent 3T3 cells (in words) ([1]; non-dividing 3T3 cells): effected the viability

O=C(O)c1[nH]c2ccccc2c1Nc1ccncc1 [Example 28 (maleate salt)]
IL-4 % ctl At 24hours ([2]; i.n., 10 mg/kg): 57 % ctl
IL-4 % ctl At 24hours ([2]; i.n., 12 mg/kg): 50 % ctl
IL-4 % ctl At 24hours ([2]; i.n., 30 mg/kg, once, 30 min before OVA challenge): 34 % ctl
IL-4 % ctl At 24hours ([2]; i.p., 30 mg/kg): 43 % ctl
IC50 [3]: 0.24 µM
IC50 [4]: > 10 µM
Eos % ctl At 72hours ([5]; 10 mg/kg): 53 % ctl
Eos % ctl At 72hours ([5]; 30 mg/kg): 28 % ctl
IC50 [6]: > 10 µM
IC50 [7]: > 10 µM
IC50 [8]: ~10 µM
